Reference: the NIST ThermoML archive (doi:10.1016/j.fluid.2014.09.014)
± gives the expanded uncertainty stated by the source.

Assay: refractive index (other wavelength) (dimensionless); xn = mol fraction of the nth substance listed
Conditions: 313.15 K, 101 kPa, Liquid, Standard Abbe refractometry

CC(C)OC(C)C [diisopropyl ether] + CC(C)O
refractive index
Conditions | Wavelength=435.8 nm | Wavelength=486.1 nm | Wavelength=546.1 nm | Wavelength=587.6 nm
x1 = 0.0277 | – | 1.37269 ± 0.00032 | 1.36987 ± 0.00032 | 1.3684 ± 0.00032
x1 = 0.0507 | – | 1.37262 ± 0.00032 | 1.3698 ± 0.00032 | 1.36833 ± 0.00032
x1 = 0.051 | – | 1.37256 ± 0.00032 | 1.36974 ± 0.00032 | 1.36828 ± 0.00032
x1 = 0.0717 | 1.37558 ± 0.00032 | 1.37221 ± 0.00032 | 1.36939 ± 0.00032 | 1.36792 ± 0.00032
x1 = 0.1528 | 1.3749 ± 0.00032 | 1.3715 ± 0.00032 | 1.36872 ± 0.00032 | 1.36724 ± 0.00032
x1 = 0.1553 | 1.3749 ± 0.00032 | 1.3715 ± 0.00032 | 1.36872 ± 0.00032 | 1.36724 ± 0.00032
x1 = 0.1938 | 1.37465 ± 0.00033 | 1.37126 ± 0.00033 | 1.36846 ± 0.00033 | 1.36699 ± 0.00033
x1 = 0.2029 | 1.37411 ± 0.00033 | 1.37068 ± 0.00033 | 1.36791 ± 0.00033 | 1.36645 ± 0.00033
x1 = 0.245 | 1.37358 ± 0.00033 | 1.37022 ± 0.00033 | 1.36743 ± 0.00033 | 1.36596 ± 0.00033
x1 = 0.297 | 1.37276 ± 0.00034 | 1.36938 ± 0.00034 | 1.36658 ± 0.00034 | 1.36512 ± 0.00034
x1 = 0.2973 | 1.37298 ± 0.00034 | 1.36959 ± 0.00034 | 1.36682 ± 0.00034 | 1.36535 ± 0.00034
x1 = 0.3068 | 1.37271 ± 0.00034 | 1.36934 ± 0.00034 | 1.36655 ± 0.00034 | 1.36509 ± 0.00034
x1 = 0.398 | 1.37134 ± 0.00035 | 1.36798 ± 0.00035 | 1.3652 ± 0.00035 | 1.36376 ± 0.00035
x1 = 0.4609 | 1.3706 ± 0.00035 | 1.36724 ± 0.00035 | 1.36445 ± 0.00035 | 1.36302 ± 0.00035
x1 = 0.5434 | 1.36967 ± 0.00036 | 1.36633 ± 0.00036 | 1.36354 ± 0.00036 | –
x1 = 0.6032 | 1.36891 ± 0.00037 | 1.36561 ± 0.00037 | 1.36281 ± 0.00037 | –
x1 = 0.6371 | 1.36856 ± 0.00038 | 1.36522 ± 0.00038 | 1.36243 ± 0.00038 | –
x1 = 0.701 | 1.36779 ± 0.00039 | 1.36447 ± 0.00039 | 1.36168 ± 0.00039 | –
x1 = 0.754 | 1.36737 ± 0.00039 | 1.36403 ± 0.00039 | 1.36126 ± 0.00039 | –
x1 = 0.791 | 1.36694 ± 0.0004 | 1.36363 ± 0.0004 | 1.36084 ± 0.0004 | –
x1 = 0.8296 | 1.36655 ± 0.00041 | 1.36322 ± 0.00041 | 1.36045 ± 0.00041 | –
x1 = 0.8864 | 1.36643 ± 0.00042 | 1.36308 ± 0.00042 | 1.36035 ± 0.00042 | –
x1 = 0.8903 | 1.36585 ± 0.00042 | 1.36252 ± 0.00042 | 1.35976 ± 0.00042 | –
x1 = 0.9113 | 1.3656 ± 0.00042 | 1.36228 ± 0.00042 | 1.35952 ± 0.00042 | –
x1 = 0.9547 | 1.36513 ± 0.00043 | 1.3618 ± 0.00043 | 1.35904 ± 0.00043 | –
x1 = 0.973 | 1.36481 ± 0.00043 | 1.36145 ± 0.00043 | 1.35868 ± 0.00043 | –
x1 = 0.9771 | 1.36465 ± 0.00043 | 1.36134 ± 0.00043 | 1.35856 ± 0.00043 | –
x1 = 1 | 1.36447 ± 0.00044 | 1.36119 ± 0.00044 | 1.35842 ± 0.00044 | –
